What was measured:
p-eIF2α = test: Immunoblot of p-eIF2α levels in CA1 punches; format: in vivo, mouse; settings: CA1 punches after 100 nM infusion into CA1, adult mice; vs vehicle
ATF4 = test: Immunoblot of ATF4 protein levels in rat insular cortex (IC); format: in vivo; settings: 1 μl, 100 nM injection to the IC; n=16; data not shown
Method: The rats were cannulated as described in Barki-Harrington et al. (2009). Briefly, the rats were anesthetized by administration of equithesin (0.3 ml/100 g), comprising 2.12% (w/v) MgSO4, 10% (v/v) ethanol, 39.1% (v/v) propyleneglycol, 0.98% (w/v) sodium pentobarbital, and 4.2% (w/v) chloral hydrate. They were restrained in a stereotactic frame (Steolting Europe, Dublin-Ireland) and stainless steel guide cannulae (23-gauge) were bilaterally implanted into the insular cortex, angled at (with reference to bregma), anteroposterior=+1.2 mm, lateral±5.5 mm, and ventral 5.0 mm (1 mm ahead of injecting cannula). Two skull screws were inserted into the skull, and acrylic dental cement was applied to secure the cannulae in position. […]
At the end of the behavioral procedure, the brains were removed, and snap-frozen in liquid nitrogen. […] Protein content was determined with the BCA Protein Assay Kit (GE Healthcare). […]
Samples were prepared in SDS sample buffer, subjected to 7.5-10% SDS-PAGE and Western blot analysis. […] The immunoblots were quantified with a CCD camera and Quantity One software (Bio-Rad, USA). Each sample was measured relative to the background. Phosphorylation levels were calculated as the ratio between chemiluminescence values of the antibody directed against the phosphoproteins and those of the antibody directed against the phosphorylation state independent forms of the proteins.

PERK = target: T1, PERK (Mus musculus, UniProt Q9Z2B5); format: in vivo
T1 construct: from tissue; host or cells: CA1 region of the hippocampus of C57BL/6 mice, in vivo
T1 sequence (Q9Z2B5 29-1114): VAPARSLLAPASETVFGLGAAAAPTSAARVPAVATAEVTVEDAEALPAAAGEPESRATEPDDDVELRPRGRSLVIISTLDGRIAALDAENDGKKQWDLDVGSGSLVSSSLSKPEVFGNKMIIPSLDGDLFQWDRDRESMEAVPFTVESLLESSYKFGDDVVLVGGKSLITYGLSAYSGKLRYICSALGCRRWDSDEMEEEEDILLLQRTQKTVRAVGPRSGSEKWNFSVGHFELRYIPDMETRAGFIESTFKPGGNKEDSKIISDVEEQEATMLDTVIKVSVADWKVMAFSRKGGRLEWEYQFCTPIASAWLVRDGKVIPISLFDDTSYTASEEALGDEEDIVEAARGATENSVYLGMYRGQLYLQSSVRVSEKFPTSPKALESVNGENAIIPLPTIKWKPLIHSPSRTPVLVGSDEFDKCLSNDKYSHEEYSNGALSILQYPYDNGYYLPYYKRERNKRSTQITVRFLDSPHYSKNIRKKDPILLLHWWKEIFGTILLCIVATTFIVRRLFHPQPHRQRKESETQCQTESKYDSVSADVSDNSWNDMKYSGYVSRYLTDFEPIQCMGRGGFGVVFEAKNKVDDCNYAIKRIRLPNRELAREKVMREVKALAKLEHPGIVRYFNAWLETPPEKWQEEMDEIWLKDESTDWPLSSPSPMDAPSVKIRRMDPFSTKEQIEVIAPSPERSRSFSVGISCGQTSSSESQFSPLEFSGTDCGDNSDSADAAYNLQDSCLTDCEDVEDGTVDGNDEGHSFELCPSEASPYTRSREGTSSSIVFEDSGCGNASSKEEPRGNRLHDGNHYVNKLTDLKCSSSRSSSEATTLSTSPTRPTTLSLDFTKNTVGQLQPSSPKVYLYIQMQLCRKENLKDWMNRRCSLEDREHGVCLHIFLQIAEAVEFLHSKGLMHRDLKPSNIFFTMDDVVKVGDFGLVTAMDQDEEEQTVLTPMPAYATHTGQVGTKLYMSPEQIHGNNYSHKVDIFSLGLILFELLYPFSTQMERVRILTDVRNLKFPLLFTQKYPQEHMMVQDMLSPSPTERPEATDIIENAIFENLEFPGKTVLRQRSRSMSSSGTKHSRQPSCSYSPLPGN
Text: Animals were anesthetized under 2% isoflurane using an isoflurane table top unit (HME109, Highland Medical Equipment). Under aseptic conditions, a rodent stereotaxic apparatus (Kopf Stereotaxic Alignment System Model 1900) with continuous 1% isoflurane anesthesia was used. For CA1 infusion cannula was implanted bilaterally into the CA1 region (from the bregma: −1.94 mm AP, ±1.0 mm ML, −1.0 mm DV). The implanted cannula was cemented on the skull. Each cannula was fitted with a 28 gauge dummy cannula that extended 0.1 mm beyond the tip of the guide cannula to prevent blockage of the guide cannula. After cannulation, mice were allowed to recover for 7 days before infusion of PERK inhibitor or vehicle and behavior. On conditioning day, randomly assigned mice were infused with 100 nM PERK inhibitor GSK2606414 (Axten et al., 2012) dissolved in dimethyl sulfoxide (DMSO) and further diluted in saline to a final DMSO concentration of 0.5%, via a 28-gauge infusion cannula connected by polyethylene (PE 20) tubing to a 10 μL Hamilton microsyringe (Hamilton Company). The infusion cannula protruded 0.25 mm beyond the guide cannula. For CA1 administration, infusion volume of 1 μl of 100 nM GSK2606414 or vehicle was delivered using a Harvard PHD2000 syringe pump (Harvard Apparatus) over the course of 1 min (at a rate of 1 μL/min). After infusion, the injection cannula was kept in the guide cannula for an additional minute to minimize dragging of infused solutes along the injection tract. Locations of cannula were verified in 30 μm coronal sections.
Model chambers measuring 25×25×25 cm internally (Panlab, Harvard Apparatus) were located inside a larger, insulated plastic cabinet that excluded external light and noise. For the trace fear conditioning protocol, mice were placed in a chamber (with light [20 W bulb] and a 16 bar metal grid floor) for 120 s, after which the mice received a 2.9 kHz tone, applied for 20 s at 80 dB (conditioned stimulus) and a 0.5 mA footshock applied for 2 s (unconditioned stimulus) 20 s following the end of the conditioned stimulus. This protocol was repeated 5 times, where each tone-shock presentation was separated by a 2-minute interval. After administration of the last shock, animals remained in the chamber for 2 minutes before they were taken back to the home cage. The chambers were cleaned with 10% ethanol between successive sets of mice. Animals from control and treatment groups were randomized between the 4 different chambers.

[1] = 100 nM bilateral infusion to CA1 50 min prior to acquisition, 48 h after conditioning, vs vehicle

Cn1cc(-c2ccc3c(c2)CCN3C(=O)Cc2cccc(C(F)(F)F)c2)c2c(N)ncnc21 [GSK2606414, 7-methyl-5-(1-{[3-(trifluoromethyl)phenyl]acetyl}-2,3-dihydro-1H-indol-5-yl)-7H-pyrrolo[2,3-d]pyrimidin-4-amine]
p-eIF2α levels (p-eIF2α): significant reduction
reduction in ATF4 protein levels (ATF4): 30%
freezing during tone presentation (tone memory) (PERK; [1]): enhanced freezing
freezing in the trace interval following the tone (trace memory) (PERK; [1]): enhanced freezing
context memory (freezing) (PERK; 100 nM bilateral infusion to CA1, 24 h after conditioning, vs vehicle): not altered
extinction (cue and trace) (PERK; 100 nM infusion to CA1 at the time of conditioning): no effect

From patent US10246712B2, “Genetic or pharmacological reduction of PERK enhances cortical- and hippocampus-dependent cognitive function” (Carmel-Haifa University Economic Corp. Ltd, priority 2015, dated 2019)
